Data: patent US20230085307A1, “PYRIDAZINONE COMPOUND AND HERBICIDE” (NISSAN CHEMICAL CORPORATION, priority 2019, published 2023)

What was measured:
barnyard grass [1] = test: Test Example 5: herbicidal effect by foliage application, plastic box (Table 20, symbol H); type: in vivo, barnyard grass (Echinochloa crus-galli); settings: foliage application, 320 g/ha, three weeks after application
Outline: (§1)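 Post-emergence foliar test in sterilized diluvial soil. Compound applied as water-diluted emulsion at a predetermined rate to 14-day-old plants; evaluation at three weeks.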

rice flat sedge = test: Test Example 3: herbicidal effect by foliage application, Wagner pot (Table 18, symbol E); type: in vivo, rice flat sedge (Cyperus iria); settings: 320 g/ha
Outline: (§2)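 Plants were sown in alluvial soil held under 0.1–0.5 cm standing water and grown 14 days in a greenhouse at 25–30 °C. An emulsifiable formulation, water-diluted to the set dose, was then sprayed onto the foliage, and effects were scored three weeks later using previously defined criteria.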

Italian ryegrass [2] = test: Test Example 5: herbicidal effect by foliage application, plastic box (Table 20, symbol K); type: in vivo, Italian ryegrass (Lolium multiflorum); settings: foliage application, 320 g/ha, three weeks after application
Outline: as §1

blackgrass [3] = test: Test Example 4: herbicidal effect by soil treatment (Table 19, symbol J); type: in vivo, blackgrass (Alopecurus myosuroides); settings: amount of applied herbicide 320 g/ha
Outline: (§3)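 Emulsion of test compound, water-diluted to predetermined amount, sprayed on soil after sowing (seed depth ~1.5 cm, sterilized diluvial soil). Greenhouse, 25–30° C. Effect graded at three weeks post-spray.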

green foxtail [4] = test: Test Example 5: herbicidal effect by foliage application, plastic box (Table 20, symbol G); type: in vivo, green foxtail (Setaria viridis); settings: foliage application, 320 g/ha, three weeks after application
Outline: as §1

wild oat [5] = test: Test Example 5: herbicidal effect by foliage application, plastic box (Table 20, symbol I); type: in vivo, wild oat (Avena fatua); settings: foliage application, 320 g/ha, three weeks after application
Outline: as §1

green foxtail [6] = test: Test Example 4: herbicidal effect by soil treatment (Table 19, symbol G); type: in vivo, green foxtail (Setaria viridis); settings: amount of applied herbicide 320 g/ha
Outline: as §3

false cleavers [7] = test: Test Example 5: herbicidal effect by foliage application, plastic box (Table 20, symbol Q); type: in vivo, false cleavers (Galium spurium); settings: foliage application, 320 g/ha, three weeks after application
Outline: as §1

persian speedwell [8] = test: Test Example 5: herbicidal effect by foliage application, plastic box (Table 20, symbol R); type: in vivo, Persian speedwell (Veronica persica); settings: foliage application, 320 g/ha, three weeks after application
Outline: as §1

southern crabgrass [9] = test: Test Example 4: herbicidal effect by soil treatment (Table 19, symbol F); type: in vivo, southern crabgrass (Digitaria ciliaris); settings: amount of applied herbicide 320 g/ha
Outline: as §3

redroot pigweed [10] = test: Test Example 5: herbicidal effect by foliage application, plastic box (Table 20, symbol N); type: in vivo, redroot pigweed (Amaranthus retroflexus); settings: foliage application, 320 g/ha, three weeks after application
Outline: as §1

windgrass [11] = test: Test Example 5: herbicidal effect by foliage application, plastic box (Table 20, symbol L); type: in vivo, windgrass (Apera spica-venti); settings: foliage application, 320 g/ha, three weeks after application
Outline: as §1

windgrass [12] = test: Test Example 4: herbicidal effect by soil treatment (Table 19, symbol L); type: in vivo, windgrass (Apera spica-venti); settings: amount of applied herbicide 320 g/ha
Outline: as §3

barnyard grass [13] = test: Test Example 3: herbicidal effect by foliage application, Wagner pot (Table 18, symbol H); type: in vivo, barnyard grass (Echinochloa crus-galli); settings: 320 g/ha
Outline: as §2

southern crabgrass [14] = test: Test Example 5: herbicidal effect by foliage application, plastic box (Table 20, symbol F); type: in vivo, southern crabgrass (Digitaria ciliaris); settings: foliage application, 320 g/ha, three weeks after application
Outline: as §1

velvetleaf [15] = test: Test Example 4: herbicidal effect by soil treatment (Table 19, symbol M); type: in vivo, velvetleaf (Abutilon theophrasti); settings: amount of applied herbicide 320 g/ha
Outline: as §3

false cleavers [16] = test: Test Example 4: herbicidal effect by soil treatment (Table 19, symbol Q); type: in vivo, false cleavers (Galium spurium); settings: amount of applied herbicide 320 g/ha
Outline: as §3

Italian ryegrass [17] = test: Test Example 4: herbicidal effect by soil treatment (Table 19, symbol K); type: in vivo, Italian ryegrass (Lolium multiflorum); settings: amount of applied herbicide 320 g/ha
Outline: as §3

lambsquarters [18] = test: Test Example 4: herbicidal effect by soil treatment (Table 19, symbol O); type: in vivo, lambsquarters (Chenopodium album); settings: amount of applied herbicide 320 g/ha
Outline: as §3

barnyard grass [19] = test: Test Example 4: herbicidal effect by soil treatment (Table 19, symbol H); type: in vivo, barnyard grass (Echinochloa crus-galli); settings: amount of applied herbicide 320 g/ha
Outline: as §3

velvetleaf [20] = test: Test Example 5: herbicidal effect by foliage application, plastic box (Table 20, symbol M); type: in vivo, velvetleaf (Abutilon theophrasti); settings: foliage application, 320 g/ha, three weeks after application
Outline: as §1

persian speedwell [21] = test: Test Example 4: herbicidal effect by soil treatment (Table 19, symbol R); type: in vivo, Persian speedwell (Veronica persica); settings: amount of applied herbicide 320 g/ha
Outline: as §3

blackgrass [22] = test: Test Example 5: herbicidal effect by foliage application, plastic box (Table 20, symbol J); type: in vivo, blackgrass (Alopecurus myosuroides); settings: foliage application, 320 g/ha, three weeks after application
Outline: as §1

redroot pigweed [23] = test: Test Example 4: herbicidal effect by soil treatment (Table 19, symbol N); type: in vivo, redroot pigweed (Amaranthus retroflexus); settings: amount of applied herbicide 320 g/ha
Outline: as §3

wild oat [24] = test: Test Example 4: herbicidal effect by soil treatment (Table 19, symbol I); type: in vivo, wild oat (Avena fatua); settings: amount of applied herbicide 320 g/ha
Outline: as §3

chickweed [25] = test: Test Example 4: herbicidal effect by soil treatment (Table 19, symbol P); type: in vivo, common chickweed (Stellaria media); settings: amount of applied herbicide 320 g/ha
Outline: as §3

lambsquarters [26] = test: Test Example 5: herbicidal effect by foliage application, plastic box (Table 20, symbol O); type: in vivo, lambsquarters (Chenopodium album); settings: foliage application, 320 g/ha, three weeks after application
Outline: as §1

chickweed [27] = test: Test Example 5: herbicidal effect by foliage application, plastic box (Table 20, symbol P); type: in vivo, common chickweed (Stellaria media); settings: foliage application, 320 g/ha, three weeks after application
Outline: as §1

Chinese sprangletop = test: Test Example 3: herbicidal effect by foliage application, Wagner pot (Table 18, symbol D); type: in vivo, chinese sprangletop (Leptochloa chinensis); settings: 320 g/ha
Outline: as §2

## COc1ccc2c(-c3c(O)c(C)nn(C)c3=O)c(-c3ccc(OC)c(OC)c3)sc2c1 [3-080]
Barnyard grass [1]
  H: barnyard grass, herbicidal effect grade: 0 (Herbicidal rate of 5% or less (almost no effect))
Rice flat sedge
  herbicidal effect on rice flat sedge (E): 4 (Herbicidal rate of 70% or more and less than 90%)
Italian ryegrass [2]
  K: Italian ryegrass, herbicidal effect grade: 4 (Herbicidal rate of 70% or more and less than 90%)
Blackgrass [3]
  J: blackgrass, herbicidal effect grade: 0 (Herbicidal rate of 5% or less (almost no effect))
Green foxtail [4]
  G: green foxtail, herbicidal effect grade: 0 (Herbicidal rate of 5% or less (almost no effect))
Wild oat [5]
  I: wild oat, herbicidal effect grade: 0 (Herbicidal rate of 5% or less (almost no effect))
Green foxtail [6]
  G: green foxtail, herbicidal effect grade: 0 (Herbicidal rate of 5% or less (almost no effect))
False cleavers [7]
  Q: false cleavers, herbicidal effect grade: 0 (Herbicidal rate of 5% or less (almost no effect))
Persian speedwell [8]
  R: persian speedwell, herbicidal effect grade: 5 (Herbicidal rate of 90% or more (almost completely withered))
Southern crabgrass [9]
  F: southern crabgrass, herbicidal effect grade: 0 (Herbicidal rate of 5% or less (almost no effect))
Redroot pigweed [10]
  N: redroot pigweed, herbicidal effect grade: 0 (Herbicidal rate of 5% or less (almost no effect))
Windgrass [11]
  L: windgrass, herbicidal effect grade: 0 (Herbicidal rate of 5% or less (almost no effect))
Windgrass [12]
  L: windgrass, herbicidal effect grade: 0 (Herbicidal rate of 5% or less (almost no effect))
Barnyard grass [13]
  herbicidal effect on barnyard grass (H): 1 (Herbicidal rate of 5% or more and less than 20%)
Southern crabgrass [14]
  F: southern crabgrass, herbicidal effect grade: 0 (Herbicidal rate of 5% or less (almost no effect))
Velvetleaf [15]
  M: velvetleaf, herbicidal effect grade: 0 (Herbicidal rate of 5% or less (almost no effect))
False cleavers [16]
  Q: false cleavers, herbicidal effect grade: 0 (Herbicidal rate of 5% or less (almost no effect))
Italian ryegrass [17]
  K: Italian ryegrass, herbicidal effect grade: 0 (Herbicidal rate of 5% or less (almost no effect))
Lambsquarters [18]
  O: lambsquarters, herbicidal effect grade: 0 (Herbicidal rate of 5% or less (almost no effect))
Barnyard grass [19]
  H: barnyard grass, herbicidal effect grade: 0 (Herbicidal rate of 5% or less (almost no effect))
Velvetleaf [20]
  M: velvetleaf, herbicidal effect grade: 1 (Herbicidal rate of 5% or more and less than 20%)
Persian speedwell [21]
  R: persian speedwell, herbicidal effect grade: 2 (Herbicidal rate of 20% or more and less than 40%)
Blackgrass [22]
  J: blackgrass, herbicidal effect grade: 2 (Herbicidal rate of 20% or more and less than 40%)
Redroot pigweed [23]
  N: redroot pigweed, herbicidal effect grade: 0 (Herbicidal rate of 5% or less (almost no effect))
Wild oat [24]
  I: wild oat, herbicidal effect grade: 0 (Herbicidal rate of 5% or less (almost no effect))
Chickweed [25]
  P: chickweed, herbicidal effect grade: 0 (Herbicidal rate of 5% or less (almost no effect))
Lambsquarters [26]
  O: lambsquarters, herbicidal effect grade: 1 (Herbicidal rate of 5% or more and less than 20%)
Chickweed [27]
  P: chickweed, herbicidal effect grade: 5 (Herbicidal rate of 90% or more (almost completely withered))
Chinese sprangletop
  herbicidal effect on Chinese sprangletop (D): 0 (Herbicidal rate of 5% or less (almost no effect))

## COc1ccc(-c2sc3cc(OC)ccc3c2-c2c(O)c(C)nn(C)c2=O)cc1 [3-068]
Barnyard grass [1]
  H: barnyard grass, herbicidal effect grade: 0 (Herbicidal rate of 5% or less (almost no effect))
Rice flat sedge
  herbicidal effect on rice flat sedge (E): 3 (Herbicidal rate of 40% or more and less than 70%)
Italian ryegrass [2]
  K: Italian ryegrass, herbicidal effect grade: 3 (Herbicidal rate of 40% or more and less than 70%)
Blackgrass [3]
  J: blackgrass, herbicidal effect grade: 0 (Herbicidal rate of 5% or less (almost no effect))
Green foxtail [4]
  G: green foxtail, herbicidal effect grade: 0 (Herbicidal rate of 5% or less (almost no effect))
Wild oat [5]
  I: wild oat, herbicidal effect grade: 0 (Herbicidal rate of 5% or less (almost no effect))
Green foxtail [6]
  G: green foxtail, herbicidal effect grade: 0 (Herbicidal rate of 5% or less (almost no effect))
False cleavers [7]
  Q: false cleavers, herbicidal effect grade: 5 (Herbicidal rate of 90% or more (almost completely withered))
Persian speedwell [8]
  R: persian speedwell, herbicidal effect grade: 5 (Herbicidal rate of 90% or more (almost completely withered))
Southern crabgrass [9]
  F: southern crabgrass, herbicidal effect grade: 0 (Herbicidal rate of 5% or less (almost no effect))
Redroot pigweed [10]
  N: redroot pigweed, herbicidal effect grade: 3 (Herbicidal rate of 40% or more and less than 70%)
Windgrass [11]
  L: windgrass, herbicidal effect grade: 0 (Herbicidal rate of 5% or less (almost no effect))
Windgrass [12]
  L: windgrass, herbicidal effect grade: 0 (Herbicidal rate of 5% or less (almost no effect))
Barnyard grass [13]
  herbicidal effect on barnyard grass (H): 3 (Herbicidal rate of 40% or more and less than 70%)
Southern crabgrass [14]
  F: southern crabgrass, herbicidal effect grade: 0 (Herbicidal rate of 5% or less (almost no effect))
Velvetleaf [15]
  M: velvetleaf, herbicidal effect grade: 0 (Herbicidal rate of 5% or less (almost no effect))
False cleavers [16]
  Q: false cleavers, herbicidal effect grade: 4 (Herbicidal rate of 70% or more and less than 90%)
Italian ryegrass [17]
  K: Italian ryegrass, herbicidal effect grade: 2 (Herbicidal rate of 20% or more and less than 40%)
Lambsquarters [18]
  O: lambsquarters, herbicidal effect grade: 4 (Herbicidal rate of 70% or more and less than 90%)
Barnyard grass [19]
  H: barnyard grass, herbicidal effect grade: 0 (Herbicidal rate of 5% or less (almost no effect))
Velvetleaf [20]
  M: velvetleaf, herbicidal effect grade: 4 (Herbicidal rate of 70% or more and less than 90%)
Persian speedwell [21]
  R: persian speedwell, herbicidal effect grade: 5 (Herbicidal rate of 90% or more (almost completely withered))
Blackgrass [22]
  J: blackgrass, herbicidal effect grade: 1 (Herbicidal rate of 5% or more and less than 20%)
Redroot pigweed [23]
  N: redroot pigweed, herbicidal effect grade: 4 (Herbicidal rate of 70% or more and less than 90%)
Wild oat [24]
  I: wild oat, herbicidal effect grade: 0 (Herbicidal rate of 5% or less (almost no effect))
Chickweed [25]
  P: chickweed, herbicidal effect grade: 2 (Herbicidal rate of 20% or more and less than 40%)
Lambsquarters [26]
  O: lambsquarters, herbicidal effect grade: 5 (Herbicidal rate of 90% or more (almost completely withered))
Chickweed [27]
  P: chickweed, herbicidal effect grade: 5 (Herbicidal rate of 90% or more (almost completely withered))
Chinese sprangletop
  herbicidal effect on Chinese sprangletop (D): 2 (Herbicidal rate of 20% or more and less than 40%)
